# Test results reported in PMC10746543, “Design principles for cyclin K molecular glue degraders” (Nature Chemical Biology, 2023).
# Where “and” joins values, the source holds several entries; their conditions need not be identical. Equal values may be shown once. Read-outs that look alike come from different tables or passages of the source.
# Experiments:
# [1] = biological target: T1, CDK12–cyclin K and DDB1 (Homo sapiens, UniProt Q16531+Q9NYV4, K965R); experiment: TR-FRET ternary complex formation assay (compound titration); format: binding
# T1 construct: His6–CDK12 (a.a. 713–1,052); full-length or beta-propeller B domain deletion (ΔBPB: a.a. 396–705 deleted) constructs of His6–DDB1ΔBPB, StrepII–Avi–DDB1, or His6–Spy–DDB1; made in house; host or cells: Trichoplusia ni High Five insect cells (baculovirus)
# Outline: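 TR-FRET ratio 520/490 nm; 70 μs delay before read to suppress background.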
# [2] = biological target: T1, CDK12–cyclin K and DDB1; experiment: TR-FRET Kd determination, quadratic fit, 50 nM or 10 nM CDK12–cyclin K; format: binding; conditions: for Kd: n = 1
# From the text: Equation (2) is a quadratic binding equation used for Kd determination,where Top and Bottom refer to the curve plateaus. […]
# [3] = tested on: cyclin K–eGFP degradation reporter; experiment: Cyclin K reporter stability analysis (dual-color cyclin K–eGFP reporter); format: cell-based, human; conditions: Supplementary Table 2; HEK293T cycK-eGFP reporter, 5 h; read-out: Cellular assays DC50
# Outline: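 First, reporter-bearing HEK293T–Cas9 cells are plated at 1 × 10^6 ml^−1. Next, drug or vehicle is added for 5 h. Finally, geometric-mean eGFP and mCherry signals of round, mCherry-positive cells are measured cytometrically, and their ratio is referenced to the DMSO average.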
# [4] = tested on: HEK293T cells; experiment: Drug sensitivity assay (CellTiter-Glo viability) with or without MLN4924 pretreatment; format: cell-based, human; conditions: for EC50: Homo sapiens, HEK-293T
# Outline: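 Luminescent ATP read-out (CellTiter-Glo) after 3 days of drug exposure, normalised to DMSO controls. Cells were HEK293T–Cas9, pretreated with 100 nM MLN4924 or DMSO for 2 h before drug dispensing.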
# T1 sequence (Q9NYV4 713-1052 K965R): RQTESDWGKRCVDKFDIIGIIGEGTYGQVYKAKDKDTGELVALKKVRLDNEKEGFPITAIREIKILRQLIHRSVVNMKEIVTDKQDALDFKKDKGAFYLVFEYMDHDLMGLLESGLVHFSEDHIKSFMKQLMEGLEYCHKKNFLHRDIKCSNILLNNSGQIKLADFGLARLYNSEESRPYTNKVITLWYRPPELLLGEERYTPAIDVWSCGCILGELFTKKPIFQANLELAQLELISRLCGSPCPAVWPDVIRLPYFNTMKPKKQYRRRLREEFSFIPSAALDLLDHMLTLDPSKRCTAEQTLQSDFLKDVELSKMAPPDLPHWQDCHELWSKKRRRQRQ
# T1 sequence (O75909 1-267 partner): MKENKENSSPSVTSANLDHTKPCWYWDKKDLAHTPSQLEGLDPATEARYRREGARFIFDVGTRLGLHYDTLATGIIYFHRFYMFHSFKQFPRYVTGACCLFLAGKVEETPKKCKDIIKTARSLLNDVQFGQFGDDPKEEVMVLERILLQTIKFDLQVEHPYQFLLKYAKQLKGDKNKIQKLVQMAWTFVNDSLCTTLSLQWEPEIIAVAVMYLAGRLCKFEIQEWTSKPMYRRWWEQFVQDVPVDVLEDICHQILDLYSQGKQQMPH
# T1 sequence (Q16531 whole entry): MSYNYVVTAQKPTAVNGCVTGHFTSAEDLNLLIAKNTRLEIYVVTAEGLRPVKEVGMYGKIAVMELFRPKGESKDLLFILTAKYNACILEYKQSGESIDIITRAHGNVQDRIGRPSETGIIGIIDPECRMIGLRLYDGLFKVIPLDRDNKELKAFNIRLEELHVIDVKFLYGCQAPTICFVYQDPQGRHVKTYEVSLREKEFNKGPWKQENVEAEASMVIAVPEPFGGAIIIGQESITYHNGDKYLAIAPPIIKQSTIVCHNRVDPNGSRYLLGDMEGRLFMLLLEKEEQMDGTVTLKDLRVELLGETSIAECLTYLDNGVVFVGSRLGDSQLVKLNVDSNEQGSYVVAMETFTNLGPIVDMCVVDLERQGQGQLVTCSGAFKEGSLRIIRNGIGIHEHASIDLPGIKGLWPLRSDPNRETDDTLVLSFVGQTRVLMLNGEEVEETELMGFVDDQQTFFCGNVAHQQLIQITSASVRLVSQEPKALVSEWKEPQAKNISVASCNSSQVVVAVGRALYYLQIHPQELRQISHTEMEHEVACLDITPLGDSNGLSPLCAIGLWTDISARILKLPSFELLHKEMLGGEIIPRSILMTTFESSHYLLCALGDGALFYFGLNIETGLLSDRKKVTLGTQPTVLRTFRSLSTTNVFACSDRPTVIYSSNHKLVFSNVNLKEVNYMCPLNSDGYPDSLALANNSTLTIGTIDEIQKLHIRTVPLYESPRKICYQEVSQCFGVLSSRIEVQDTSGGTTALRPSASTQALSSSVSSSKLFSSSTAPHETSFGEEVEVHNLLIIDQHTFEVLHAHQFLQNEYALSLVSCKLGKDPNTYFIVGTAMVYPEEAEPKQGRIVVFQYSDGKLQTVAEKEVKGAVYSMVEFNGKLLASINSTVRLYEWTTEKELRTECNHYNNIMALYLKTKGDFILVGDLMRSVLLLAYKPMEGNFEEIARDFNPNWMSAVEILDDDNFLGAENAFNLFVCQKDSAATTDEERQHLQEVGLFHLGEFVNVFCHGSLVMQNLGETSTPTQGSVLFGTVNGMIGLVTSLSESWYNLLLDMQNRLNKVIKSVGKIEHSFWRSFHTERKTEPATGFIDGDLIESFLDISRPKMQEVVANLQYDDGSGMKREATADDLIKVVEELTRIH
structure (smiles),measurement,setting,value
CCC(CO)Nc1nc(NCc2ccc(-c3ccccc3)cc2)c2ncn(C(C)C)c2n1 (centres unmarked) [DS16],"TR-FRET signal, individual replicate",[1]; compound concentration 0.468 nM,0.2708 and 0.2758 and 0.8924 and 0.6371
same,"TR-FRET signal, individual replicate",[1]; compound concentration 2.16 nM,0.3875 and 0.4113 and 0.3298 and 0.5644
same,"TR-FRET signal, individual replicate",[1]; compound concentration 3.6 nM,0.6563 and 0.6817 and 0.5785 and 0.7591
same,"TR-FRET signal, individual replicate",[1]; compound concentration 7.92001 nM,1.219 and 1.2973 and 0.9793 and 1.183
same,"TR-FRET signal, individual replicate",[1]; compound concentration 15.84 nM,2.2073 and 2.2521 and 2.043 and 2.171
same,"TR-FRET signal, individual replicate",[1]; compound concentration 30.96 nM,3.25 and 3.347 and 3.281 and 3.173
same,"TR-FRET signal, individual replicate",[1]; compound concentration 62.6401 nM,3.39 and 3.868 and 3.793 and 3.73
same,"TR-FRET signal, individual replicate",[1]; compound concentration 125.28 nM,3.865 and 4.101 and 4.033 and 4.091
same,"TR-FRET signal, individual replicate",[1]; compound concentration 244.8 nM,3.936 and 4.169 and 4.142 and 4.064
same,"TR-FRET signal, individual replicate",[1]; compound concentration 993.601 nM,4.054 and 4.241 and 4.216 and 4.146
same,"TR-FRET signal, individual replicate",[1]; compound concentration 2001.6 nM,3.9849 and 4.219 and 4.148 and 4.067
same,"DDB1–CDK12 complex formation, result in words",[1]; in vitro TR-FRET,activity equivalent to CR8
same,EC50,"[1]; in vitro complex formation, 50 nM CDK12–cyclin K, 100 nM DDB1, text and figures, read-out: TR-FRET EC50",17 ± 1 nM
same,EC50,"[1]; sheet MOESM7, read-out: log TR-FRET EC50 (converted)",16.7 nM
same,EC50,"[1]; source data sheet correlations, read-out: TR-FRET EC50",16.7 nM
same,Kd,[2]; 10 nM CDK12-cyclin K + 100 nM DDB1,4 ± 1 nM
same,TR-FRET signal,"[2]; 10 nM CDK12-cyclin K, compound 0.468 nM",0.1087
same,TR-FRET signal,"[2]; 10 nM CDK12-cyclin K, compound 2.16 nM",0.1516
same,TR-FRET signal,"[2]; 10 nM CDK12-cyclin K, compound 3.6 nM",0.2175
same,TR-FRET signal,"[2]; 10 nM CDK12-cyclin K, compound 7.92 nM",0.2964
same,TR-FRET signal,"[2]; 10 nM CDK12-cyclin K, compound 15.84 nM",0.3471
same,TR-FRET signal,"[2]; 10 nM CDK12-cyclin K, compound 30.96 nM",0.4043
same,TR-FRET signal,"[2]; 10 nM CDK12-cyclin K, compound 62.6399 nM",0.4639
same,TR-FRET signal,"[2]; 10 nM CDK12-cyclin K, compound 125.279 nM",0.4363
same,TR-FRET signal,"[2]; 10 nM CDK12-cyclin K, compound 244.8 nM",0.4586
same,TR-FRET signal,"[2]; 10 nM CDK12-cyclin K, compound 993.6 nM",0.4753
same,TR-FRET signal,"[2]; 10 nM CDK12-cyclin K, compound 2001.6 nM",0.4769
same,Kd,[2]; 50 nM CDK12-cyclin K + 100 nM DDB1,6 ± 2 nM
same,TR-FRET signal,"[2]; 50 nM CDK12-cyclin K, compound 0.468 nM",0.2249
same,TR-FRET signal,"[2]; 50 nM CDK12-cyclin K, compound 2.16 nM",0.2842
same,TR-FRET signal,"[2]; 50 nM CDK12-cyclin K, compound 3.6 nM",0.3938
same,TR-FRET signal,"[2]; 50 nM CDK12-cyclin K, compound 7.92 nM",0.6539
same,TR-FRET signal,"[2]; 50 nM CDK12-cyclin K, compound 15.84 nM",1.0227
same,TR-FRET signal,"[2]; 50 nM CDK12-cyclin K, compound 30.96 nM",1.706
same,TR-FRET signal,"[2]; 50 nM CDK12-cyclin K, compound 62.6399 nM",2.089
same,TR-FRET signal,"[2]; 50 nM CDK12-cyclin K, compound 125.279 nM",2.303
same,TR-FRET signal,"[2]; 50 nM CDK12-cyclin K, compound 244.8 nM",2.498
same,TR-FRET signal,"[2]; 50 nM CDK12-cyclin K, compound 993.6 nM",2.704
same,TR-FRET signal,"[2]; 50 nM CDK12-cyclin K, compound 2001.6 nM",2.6928
same,DC50,[3],1030 nM
same,EC50,"[4]; Supplementary Fig. 5, HEK293T, CellTiter Glo, 72h, pre-treatment with 100 nM MLN4924, read-out: Viability EC50, with MLN4924",15000 nM
same,EC50,"[4]; Supplementary Table 2, HEK293T viability, 72 h, compound alone, read-out: Cellular assays EC50",600 nM
same,% MLN4924 rescue,[4]; PCA input,1490%
same,Toxicity rescue,"[4]; Supplementary Table 2, MLN4924-mediated cytotoxicity rescue, 10 µM used where n.d.",1567%
